Assay results reported in patent publication US12492196B2, “Thienyloxazolones and analogues” (Bayer Aktiengesellschaft, priority 2019, dated 2025).
Marks after values point to notes of the source that are not given here.

How the values were obtained:
[1] = test system: Colletotrichum lindemuthianum; assay: Colletotrichum lindemuthianum in vitro cell test; type: cell-based; details: 144 h, 20 ppm of active ingredient, 6 days incubation, read-out: efficacy (direct activity, inhibition of fungal growth)
Description: Solvent: DMSO Culture medium: 14.6 g anhydrous D-glucose (VWR), 7.1 g Mycological Peptone (Oxoid), 1.4 g granulated Yeast Extract (Merck), QSP 1 liter Inoculum: spores suspension Fungicides were solubilized in DMSO and the solution used to prepare the required range of concentrations. The final concentration of DMSO used in the assay was ≤1%. A spore suspension of C. lindemuthianum was prepared and diluted to the desired spore density. Fungicides were evaluated for their ability to inhibit spores germination and mycelium growth in liquid culture assay. The compounds were added in the desired concentration to the culture medium with spores. After 6 days incubation, fungi-toxicity of compounds was determined by spectrometric measurement of mycelium growth. Inhibition of fungal growth was determined by comparing the absorbance values in wells containing the fungicides with the absorbance in control wells without fungicides.

[2] = test system: Colletotrichum lindemuthianum; assay: In vivo preventive test on Colletotrichum lindemuthianum (Antrachnose on bean); details: for pest or weed control at 31 ppm / pest or weed control at 500 ppm: Colletotrichum lindemuthianum, 144 h, bean, evaluated 6 days after inoculation, read-out: efficacy; for pest or weed control at 31 ppm: 31 ppm of active ingredient; for pest or weed control at 500 ppm: 500 ppm of active ingredient
Description: The tested active ingredients were prepared by homogenization in a mixture of acetone/Dimethyl sulfoxide/Tween®, and then diluted with water to obtain the desired active material concentration. The young plants of bean were treated by spraying the active ingredient prepared as described above. Control plants were treated only with an aqueous solution of acetone/Dimethyl sulfoxide/Tween®.
After 72 hours, the plants were contaminated by spraying the leaves with an aqueous suspension of Colletotrichum lindemuthianum spores. The contaminated bean plants were incubated for 24 hours at 20° C. and at 100% relative humidity and then for 5 days at 20° C. and at 90% relative humidity.
The test was evaluated 6 days after the inoculation. 0% means an efficacy which corresponds to that of the control plants while an efficacy of 100% means that no disease was observed.
Compound CMP1 was tested in an in vivo preventive test on Colletotrichum lindemuthianum (Antrachnose on bean) in the same conditions as described in Example D.

[3] = Log P by HPLC on reversed phase columns (EEC directive 79/831 Annex V.A8); type: physicochemical
Description: In the above table, measurement of Log P values was performed according to EEC directive 79/831 Annex V.A8 by HPLC (High Performance Liquid Chromatography) on reversed phase columns with the following methods: • [^a] Log P value is determined by measurement of LC-UV, in an acidic range, with 0.1% formic acid in water and acetonitrile as eluent (linear gradient from 10% acetonitrile to 95% acetonitrile). • [^b] Log P value is determined by measurement of LC-UV, in a neutral range, with 0.001 molar ammonium acetate solution in water and acetonitrile as eluent (linear gradient from 10% acetonitrile to 95% acetonitrile). • [^c] Log P value is determined by measurement of LC-UV, in an acidic range, with 0.1% phosphoric acid and acetonitrile as eluent (linear gradient from 10% acetonitrile to 95% acetonitrile).
If more than one Log P value is available within the same method, all the values are given and separated by “+”.
Calibration was done with straight-chain alkan2-ones (with 3 to 16 carbon atoms) with known Log P values (measurement of Log P values using retention times with linear interpolation between successive alkanones). Lambda-max-values were determined using UV-spectra from 200 nm to 400 nm and the peak values of the chromatographic signals.

[4] = test system: Uromyces appendiculatus; assay: In vivo preventive test on Uromyces appendiculatus (bean rust); details: for pest or weed control at 31 ppm / pest or weed control at 125 ppm / pest or weed control at 500 ppm: Uromyces appendiculatus, 240 h, bean, evaluated 10 days after inoculation, read-out: efficacy; for pest or weed control at 31 ppm: 31 ppm of active ingredient; for pest or weed control at 125 ppm: 125 ppm of active ingredient; for pest or weed control at 500 ppm: 500 ppm of active ingredient
Description: (§1) The tested active ingredients were prepared by homogenization in a mixture of acetone/Dimethyl sulfoxide/Tween®, and then diluted with water to obtain the desired active material concentration.
The young plants of bean were treated by spraying the active ingredient prepared as described above.
Control plants were treated only with an aqueous solution of acetone/Dimethyl sulfoxide/Tween®.
After 72 hours, the plants were contaminated by spraying the leaves with an aqueous suspension of Uromyces appendiculatus spores. The contaminated bean plants were incubated for 24 hours at 20° C. and at 100% relative humidity and then for 9 days at 20° C. and at 70-80% relative humidity.
The test was evaluated 10 days after the inoculation. 0% means an efficacy which corresponds to that of the control plants while an efficacy of 100% means that no disease was observed.
Compound CMP1 was tested in an in vivo preventive test on Uromyces appendiculatus (bean rust) in the same conditions as described in Example G.

[5] = test system: Xanthomonas campestris pv. campestris; assay: Xanthomonas campestris pv. campestris in vitro cell test; type: cell-based; details: 20 ppm of active ingredient, 24 h incubation, read-out: efficacy (direct activity, inhibition of bacteria growth)
Description: Solvent: DMSO Culture medium: LB broth medium (Luria Broth Miller) Sigma Inoculum: bacteria suspension Compounds were solubilized in DMSO and the solution used to prepare the required range of concentrations. The final concentration of DMSO used in the assay was ≤1%. Inoculum was prepared from a pre-culture of bacteria grown in liquid medium and diluted to the desired optical density (OD). Compounds were evaluated for their ability to inhibit bacteria growth in liquid culture assay. The compounds were added in the desired concentrations to culture medium containing the bacteria suspension. After 24 h of incubation, the efficacy of compounds was determined by spectrometric measurement of bacteria growth. Inhibition was determined by comparing the absorbance values in wells containing the compounds with the absorbance in control wells without active ingredients.

[6] = test system: Peronospora parasitica; assay: In vivo preventive test on Peronospora parasitica (crucifer downy mildew); details: Hyaloperonospora parasitica, 120 h; 125 ppm of active ingredient; cabbage; evaluated 5 days after inoculation; read-out: efficacy
Description: as §1
(§2) The young plants of cabbage were treated by spraying the active ingredient prepared as described above. Control plants were treated only with an aqueous solution of acetone/Dimethyl sulfoxide/Tween®.
After 72 hours, the plants were contaminated by spraying the leaves with an aqueous suspension of Peronospora parasitica spores. The contaminated cabbage plants were incubated for 5 days at 20° C. and at 100% relative humidity.
The test was evaluated 5 days after the inoculation. 0% means an efficacy which corresponds to that of the control plants while an efficacy of 100% means that no disease was observed.

[7] = test system: salicylate responsive promoter sequence of the PR1 (pathogenesis-related protein I) gene (AT2G14610); assay: Induction of defense gene expression in Arabidopsis thaliana (PR1 promoter-GFP reporter plants); type: in vivo; details: 72 h, 3rd day after spraying, mock treated leaves set as 1.00, read-out: relative fluorescence value; for fold induction at 75 ppm: 75 ppm of compound
Description: Arabidopsis thaliana reporter plants containing the coding sequence of a green fluorescent protein (GFP) linked to the salicylate responsive promoter sequence of the PR1 (pathogenesis-related protein I) gene (AT2G14610) were grown for five days and then sprayed with compounds. On the 3rd day after spraying, plant fluorescence was assessed with a MacroFluo instrument from Leica Microsystems (Wetzlar, Germany). Fluorescences were quantified with the Meta-Morph Microscopy Automation & Image Analysis Software (Molecular Devices, Sunnyvale, Calif., United States).
Background fluorescence in mock treated leaves was set as 1.00.

[8] = test system: Xanthomonas campestris pv. campestris; assay: In vivo preventive test on Xanthomonas campestris pv. campestris (black rot on cabbage); details: for pest or weed control at 31 ppm / pest or weed control at 125 ppm: Xanthomonas campestris, cabbage, evaluated 8 or 10 days after inoculation, read-out: efficacy; for pest or weed control at 31 ppm: 31 ppm of active ingredient; for pest or weed control at 125 ppm: 125 ppm of active ingredient
Description: as §1, §2
After 72 hours, the plants were contaminated by spraying the leaves with an aqueous bacteria suspension of Xanthomonas campestris pv. campestris. The contaminated cabbage plants were incubated for 8 or 10 days at 27° C. at 95% relative humidity.
The test was evaluated 8 or 10 days after the inoculation. 0% means an efficacy which corresponds to that of the control plants while an efficacy of 100% means that no disease was observed.
Compound CMP1 was tested in an in vivo preventive test on Xanthomonas campestris pv. campestris (black rot on cabbage) in the same conditions as described in Example F.

[9] = reversed phase HPLC columns, method [a]: LC-UV, acidic range, 0.1% formic acid in water and acetonitrile as eluent

Structure (SMILES) | chromatographic logP [3, 9] | inhibition at 20 ppm [1] [%] | pest or weed control at 31 ppm [2] [%] | pest or weed control at 31 ppm [4] [%] | pest or weed control at 125 ppm [4] [%] | inhibition at 20 ppm [5] [%] | pest or weed control at 125 ppm [6] [%] | fold induction at 75 ppm [7] | fold induction at 300 ppm [7] | pest or weed control at 500 ppm [2] [%] | pest or weed control at 500 ppm [4] [%] | pest or weed control at 31 ppm [8] [%] | pest or weed control at 125 ppm [8] [%] | chromatographic logP ([3]; given in preparation examples, method not marked) | Efficacy (%) at 31 ppm ([2]; 31 ppm, conditions of Example D) [%] | Efficacy (%) at 31 ppm ([4]; 31 ppm, arithmetic mean of 3 tests, conditions of Example G) | Efficacy (%) at 125 ppm ([4]; 125 ppm, arithmetic mean of 3 tests, conditions of Example G) | Efficacy (%) at 31 ppm ([8]; 31 ppm, arithmetic mean of 4 tests, conditions of Example F) | Efficacy (%) at 125 ppm ([8]; 125 ppm, arithmetic mean of 4 tests, conditions of Example F)
O=C1OC(c2sc(Cl)c(Br)c2Cl)=NC12CCC2 [I.25] | 4.47 | ≤ 30 | 70 to 79 | 90 to 100 | 90 to 100 | ≤ 30 |  |  |  |  |  |  |  |  |  |  |  |  | 
Cc1c(C2=NC3(CC3)C(=O)O2)sc(C#N)c1Br [I.06, 3-bromo-4-methyl-5-(7-oxo-6-oxa-4-azaspiro[2.4]hept-4-en-5-yl)thiophene-2-carbonitrile] |  | ≤ 30 |  | 70 to 79 | 70 to 79 | ≤ 30 | 90 to 100 | > 2 | > 2 | 90 to 100 | 90 to 100 | 90 to 100 | 90 to 100 | 3.37 |  |  |  |  | 
O=C1OC(c2cc(Br)c(Br)s2)=NC12CC2 [CMP1, reference compound] |  |  | < 20 | < 40 | 42 |  |  |  |  |  |  | < 40 | < 40 |  | 19 | 32* % | 42* % | 35* % | 37* %
O=C1OC(c2sc(Cl)c(Br)c2Cl)=NC12CC2 [I.09] | 4.01 | ≤ 30 | 70 to 79 | 90 to 100 | 90 to 100 | ≤ 30 | 90 to 100 | > 2 | > 2 | 90 to 100 | 90 to 100 | 70 to 79 |  |  |  |  |  |  | 

The next lines start with results.

chromatographic logP [3, 9] | Structure (SMILES) | inhibition at 20 ppm [1] [%] | pest or weed control at 31 ppm [2] [%] | pest or weed control at 31 ppm [4] [%] | pest or weed control at 125 ppm [4] [%] | inhibition at 20 ppm [5] [%] | pest or weed control at 125 ppm [6] [%] | fold induction at 75 ppm [7] | fold induction at 300 ppm [7] | pest or weed control at 500 ppm [2] [%] | pest or weed control at 500 ppm [4] [%] | pest or weed control at 31 ppm [8] [%] | pest or weed control at 125 ppm [8] [%] | chromatographic logP ([3]; given in preparation examples, method not marked) | Efficacy (%) at 31 ppm ([2]; 31 ppm, conditions of Example D) [%] | Efficacy (%) at 31 ppm ([4]; 31 ppm, arithmetic mean of 3 tests, conditions of Example G) | Efficacy (%) at 125 ppm ([4]; 125 ppm, arithmetic mean of 3 tests, conditions of Example G) | Efficacy (%) at 31 ppm ([8]; 31 ppm, arithmetic mean of 4 tests, conditions of Example F) | Efficacy (%) at 125 ppm ([8]; 125 ppm, arithmetic mean of 4 tests, conditions of Example F)
4.55 | O=C1OC(c2sc(Cl)c(Cl)c2Br)=NC12CCC2 [I.22] | ≤ 30 | 80 to 89 | 90 to 100 | 90 to 100 | ≤ 30 | 90 to 100 |  |  |  |  |  |  |  |  |  |  |  | 
4.12 | O=C1OC(c2sc(Cl)c(Br)c2Br)=NC12CC2 [I.08] | ≤ 30 |  | 90 to 100 | 90 to 100 | ≤ 30 | 90 to 100 | > 2 | > 2 | 90 to 100 | 90 to 100 | 80 to 89 | 70 to 79 |  |  |  |  |  | 
4.32 | Cc1c(C2=NC3(CC3)C(=O)O2)sc(Br)c1Cl [I.12] | ≤ 30 |  |  | 90 to 100 | ≤ 30 | 90 to 100 |  | > 2 | 80 to 89 | 90 to 100 | 70 to 79 | 90 to 100 |  |  |  |  |  | 
3.98 | O=C1OC(c2cc(Br)c(C(F)(F)F)s2)=NC12CC2 [I.26] |  |  |  |  |  | 90 to 100 |  |  | 70 to 79 | 90 to 100 | 70 to 79 |  |  |  |  |  |  | 
4.02 | O=C1OC(c2sc(Br)c(Br)c2F)=NC12CCC2 [I.13] | ≤ 30 |  |  | 90 to 100 | ≤ 30 | 90 to 100 |  |  | 90 to 100 | 90 to 100 | 90 to 100 | 80 to 89 |  |  |  |  |  | 
4.39 | Cc1c(C2=NC3(CC3)C(=O)O2)sc(Cl)c1Br [I.11] | ≤ 30 |  | 80 to 89 | 90 to 100 | ≤ 30 | 90 to 100 | > 2 |  | 90 to 100 | 90 to 100 | 70 to 79 | 90 to 100 |  |  |  |  |  | 
